Assay results taken from ChEMBL document CHEMBL4507288 (2021).

How the values were obtained:
[1] = target: Mitogen-activated protein kinase kinase kinase kinase 4 (Homo sapiens) (UniProt O95819); conditions: Compound concentration 1000.0 nM
[2] = target: AP2-associated protein kinase 1 (Homo sapiens) (UniProt Q2M2I8); conditions: Compound concentration 1000.0 nM
[3] = target: Insulin receptor-related protein (Homo sapiens) (UniProt P14616); conditions: Compound concentration 1000.0 nM
[4] = target: Serine/threonine-protein kinase PLK3 (Homo sapiens) (UniProt Q9H4B4); conditions: Compound concentration 1000.0 nM
[5] = test system: Mast/stem cell growth factor receptor Kit (Homo sapiens), P10721 [V559D,V654A]; conditions: Compound concentration 1000.0 nM
Chain of Mast/stem cell growth factor receptor Kit (Homo sapiens), P10721 [V559D,V654A] (P10721 whole entry V559D/V654A): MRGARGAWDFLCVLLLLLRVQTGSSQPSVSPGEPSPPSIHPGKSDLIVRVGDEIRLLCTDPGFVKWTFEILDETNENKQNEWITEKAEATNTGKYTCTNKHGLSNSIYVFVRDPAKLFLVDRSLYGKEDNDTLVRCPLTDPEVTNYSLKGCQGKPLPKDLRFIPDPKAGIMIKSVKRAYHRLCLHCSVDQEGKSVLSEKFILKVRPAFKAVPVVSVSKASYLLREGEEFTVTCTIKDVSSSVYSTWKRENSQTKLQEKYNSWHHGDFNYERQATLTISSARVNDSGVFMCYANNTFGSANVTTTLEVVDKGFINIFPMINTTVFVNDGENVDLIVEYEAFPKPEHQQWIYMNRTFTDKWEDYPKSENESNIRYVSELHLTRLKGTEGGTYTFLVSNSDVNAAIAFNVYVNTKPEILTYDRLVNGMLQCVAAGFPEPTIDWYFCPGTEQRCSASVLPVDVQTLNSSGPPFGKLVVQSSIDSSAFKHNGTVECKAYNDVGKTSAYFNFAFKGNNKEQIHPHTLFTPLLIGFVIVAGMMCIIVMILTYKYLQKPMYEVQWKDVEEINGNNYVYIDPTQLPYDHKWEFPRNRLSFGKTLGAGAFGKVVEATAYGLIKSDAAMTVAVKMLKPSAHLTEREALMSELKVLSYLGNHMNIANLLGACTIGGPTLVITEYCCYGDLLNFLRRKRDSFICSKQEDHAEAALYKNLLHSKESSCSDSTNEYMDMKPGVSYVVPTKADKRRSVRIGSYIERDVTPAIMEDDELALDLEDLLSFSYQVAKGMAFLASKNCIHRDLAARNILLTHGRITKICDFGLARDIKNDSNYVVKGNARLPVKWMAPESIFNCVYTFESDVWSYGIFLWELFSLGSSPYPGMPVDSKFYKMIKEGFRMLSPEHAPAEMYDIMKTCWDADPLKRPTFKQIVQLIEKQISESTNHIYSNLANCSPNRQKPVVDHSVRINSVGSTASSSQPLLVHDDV

[6] = target: Serine/threonine-protein kinase Nek6 (Homo sapiens) (UniProt Q9HC98); conditions: Compound concentration 1000.0 nM
Chain of Serine/threonine-protein kinase Nek6 (Homo sapiens) (Q9HC98 whole entry): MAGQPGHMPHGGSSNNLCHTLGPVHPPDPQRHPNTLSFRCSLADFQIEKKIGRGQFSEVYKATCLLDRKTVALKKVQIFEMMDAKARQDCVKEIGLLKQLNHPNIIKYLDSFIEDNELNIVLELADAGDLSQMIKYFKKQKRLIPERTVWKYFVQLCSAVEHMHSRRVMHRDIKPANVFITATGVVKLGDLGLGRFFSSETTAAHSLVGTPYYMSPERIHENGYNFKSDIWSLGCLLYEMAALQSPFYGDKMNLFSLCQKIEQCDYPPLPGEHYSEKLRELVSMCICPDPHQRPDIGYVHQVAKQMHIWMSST

[7] = target: 5'-AMP-activated protein kinase catalytic subunit alpha-1 (Homo sapiens) (UniProt Q13131); conditions: Compound concentration 1000.0 nM
[8] = target: Ribosomal protein S6 kinase alpha-2 (Homo sapiens) (UniProt Q15349); conditions: Compound concentration 1000.0 nM
[9] = target: Serine/threonine-protein kinase D3 (Homo sapiens) (UniProt O94806); conditions: Compound concentration 1000.0 nM
[10] = target: Tyrosine-protein kinase Lyn (Homo sapiens) (UniProt P07948); conditions: Compound concentration 1000.0 nM
[11] = target: Serine/threonine-protein kinase 4 (Homo sapiens) (UniProt Q13043); conditions: Compound concentration 1000.0 nM
Chain of Serine/threonine-protein kinase 4 (Homo sapiens) (Q13043 whole entry): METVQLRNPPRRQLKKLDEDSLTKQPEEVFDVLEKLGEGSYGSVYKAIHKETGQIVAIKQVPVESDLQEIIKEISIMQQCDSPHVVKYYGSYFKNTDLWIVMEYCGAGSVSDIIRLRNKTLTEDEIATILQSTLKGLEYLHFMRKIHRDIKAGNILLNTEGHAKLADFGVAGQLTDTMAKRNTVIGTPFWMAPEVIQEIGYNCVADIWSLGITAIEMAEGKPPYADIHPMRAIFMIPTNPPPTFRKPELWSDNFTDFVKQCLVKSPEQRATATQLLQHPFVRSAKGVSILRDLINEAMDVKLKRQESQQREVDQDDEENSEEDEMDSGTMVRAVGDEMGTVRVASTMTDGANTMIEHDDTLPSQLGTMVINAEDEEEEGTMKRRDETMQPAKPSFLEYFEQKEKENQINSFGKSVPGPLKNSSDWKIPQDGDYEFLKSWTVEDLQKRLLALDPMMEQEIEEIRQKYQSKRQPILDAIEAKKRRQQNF

[12] = target: Mitogen-activated protein kinase 13 (Homo sapiens) (UniProt O15264); conditions: Compound concentration 1000.0 nM
[13] = target: Tyrosine-protein kinase Fes/Fps (Homo sapiens) (UniProt P07332); conditions: Compound concentration 1000.0 nM
[14] = target: Uncharacterized serine/threonine-protein kinase SBK3 (Homo sapiens) (UniProt P0C264); conditions: Compound concentration 1000.0 nM
[15] = target: Hormonally up-regulated neu tumor-associated kinase (Homo sapiens) (UniProt P57058); conditions: Compound concentration 1000.0 nM
[16] = target: Phosphatidylinositol 4,5-bisphosphate 3-kinase catalytic subunit gamma isoform (Homo sapiens) (UniProt P48736); conditions: Compound concentration 1000.0 nM
[17] = target: Serine/threonine-protein kinase LATS1 (Homo sapiens) (UniProt O95835); conditions: Compound concentration 1000.0 nM
[18] = test system: Hepatocyte growth factor receptor (Homo sapiens), P08581 [Y1235D]; conditions: Compound concentration 1000.0 nM
[19] = target: Calcium/calmodulin-dependent protein kinase type IV (Homo sapiens) (UniProt Q16566); conditions: Compound concentration 1000.0 nM
[20] = target: Interferon-induced, double-stranded RNA-activated protein kinase (Homo sapiens) (UniProt P19525); conditions: Compound concentration 1000.0 nM
[21] = target: Mitogen-activated protein kinase kinase kinase kinase 1 (Homo sapiens) (UniProt Q92918); conditions: Compound concentration 1000.0 nM
Chain of Mitogen-activated protein kinase kinase kinase kinase 1 (Homo sapiens) (Q92918 whole entry, looked up): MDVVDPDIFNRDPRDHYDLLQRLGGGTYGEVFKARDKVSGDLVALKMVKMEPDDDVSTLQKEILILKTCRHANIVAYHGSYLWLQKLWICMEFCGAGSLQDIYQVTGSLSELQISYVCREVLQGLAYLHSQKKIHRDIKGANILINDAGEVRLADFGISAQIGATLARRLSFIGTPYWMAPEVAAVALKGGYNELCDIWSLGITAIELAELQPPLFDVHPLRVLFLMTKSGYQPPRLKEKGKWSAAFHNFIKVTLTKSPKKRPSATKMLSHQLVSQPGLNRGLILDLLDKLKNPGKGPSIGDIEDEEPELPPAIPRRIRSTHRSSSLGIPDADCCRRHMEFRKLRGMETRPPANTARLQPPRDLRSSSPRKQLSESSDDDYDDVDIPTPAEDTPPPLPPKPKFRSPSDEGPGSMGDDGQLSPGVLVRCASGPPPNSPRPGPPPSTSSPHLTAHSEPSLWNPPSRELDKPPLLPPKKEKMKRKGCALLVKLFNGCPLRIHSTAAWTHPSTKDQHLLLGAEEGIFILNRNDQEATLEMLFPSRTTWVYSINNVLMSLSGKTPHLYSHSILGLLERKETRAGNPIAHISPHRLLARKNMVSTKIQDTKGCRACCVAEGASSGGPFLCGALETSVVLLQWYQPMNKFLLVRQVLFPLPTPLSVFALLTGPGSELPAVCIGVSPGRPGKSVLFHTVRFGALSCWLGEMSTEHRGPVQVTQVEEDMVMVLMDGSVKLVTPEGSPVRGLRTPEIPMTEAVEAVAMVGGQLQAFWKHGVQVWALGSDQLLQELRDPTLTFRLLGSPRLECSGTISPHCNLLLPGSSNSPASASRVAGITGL

[22] = target: Eukaryotic translation initiation factor 2-alpha kinase 1 (Homo sapiens) (UniProt Q9BQI3); conditions: Compound concentration 1000.0 nM
[23] = target: Cyclin-dependent kinase 4 (Homo sapiens) (UniProt P11802); conditions: Compound concentration 1000.0 nM
Chain of Cyclin-dependent kinase 4 (Homo sapiens) (P11802 whole entry): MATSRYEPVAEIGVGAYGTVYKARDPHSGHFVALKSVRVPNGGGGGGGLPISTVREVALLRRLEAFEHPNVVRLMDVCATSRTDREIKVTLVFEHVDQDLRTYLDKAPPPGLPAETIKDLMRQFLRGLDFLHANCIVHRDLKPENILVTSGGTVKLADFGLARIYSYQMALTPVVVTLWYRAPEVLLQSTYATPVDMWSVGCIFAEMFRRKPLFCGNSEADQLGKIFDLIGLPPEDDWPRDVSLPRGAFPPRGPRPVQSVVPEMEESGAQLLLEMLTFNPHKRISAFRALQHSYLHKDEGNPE

[24] = target: Mitogen-activated protein kinase kinase kinase 9 (Homo sapiens) (UniProt P80192); conditions: Compound concentration 1000.0 nM
[25] = target: Cyclin-dependent kinase 13 (Homo sapiens) (UniProt Q14004); conditions: Compound concentration 1000.0 nM
[26] = target: Mitogen-activated protein kinase kinase kinase 4 (Homo sapiens) (UniProt Q9Y6R4); conditions: Compound concentration 1000.0 nM
[27] = target: Tyrosine-protein kinase JAK1 (Homo sapiens) (UniProt P23458); conditions: Compound concentration 1000.0 nM
[28] = target: Serine/threonine-protein kinase PAK 4 (Homo sapiens) (UniProt O96013); conditions: Compound concentration 1000.0 nM
[29] = target: Mitogen-activated protein kinase kinase kinase kinase 3 (Homo sapiens) (UniProt Q8IVH8); conditions: Compound concentration 1000.0 nM
[30] = target: Serine/threonine-protein kinase Chk2 (Homo sapiens) (UniProt O96017); conditions: Compound concentration 1000.0 nM
[31] = target: Muscle, skeletal receptor tyrosine-protein kinase (Homo sapiens) (UniProt O15146); conditions: Compound concentration 1000.0 nM
[32] = target: Mitogen-activated protein kinase kinase kinase 14 (Homo sapiens) (UniProt Q99558); conditions: Compound concentration 1000.0 nM
[33] = test system: Mast/stem cell growth factor receptor Kit (Homo sapiens), P10721 [L576P]; conditions: Compound concentration 1000.0 nM
Chain of Mast/stem cell growth factor receptor Kit (Homo sapiens), P10721 [L576P] (P10721 whole entry L576P): as the sequence (P10721 whole entry V559D/V654A) above, with D559V, L576P, A654V counted along it

[34] = test system: Tyrosine-protein kinase ABL1 (Homo sapiens), P00519 [F317L]; conditions: Compound concentration 1000.0 nM
[35] = target: Myosin light chain kinase, smooth muscle (Homo sapiens) (UniProt Q15746); conditions: Compound concentration 1000.0 nM
[36] = target: Receptor-interacting serine/threonine-protein kinase 2 (Homo sapiens) (UniProt O43353); conditions: Compound concentration 1000.0 nM
[37] = target: Dual specificity mitogen-activated protein kinase kinase 3 (Homo sapiens) (UniProt P46734); conditions: Compound concentration 1000.0 nM
[38] = test system: Phosphatidylinositol 4,5-bisphosphate 3-kinase catalytic subunit alpha isoform (Homo sapiens), P42336 [E542K]; conditions: Compound concentration 1000.0 nM
Chain of Phosphatidylinositol 4,5-bisphosphate 3-kinase catalytic subunit alpha isoform (Homo sapiens), P42336 [E542K] (P42336 whole entry E542K, canonical isoform): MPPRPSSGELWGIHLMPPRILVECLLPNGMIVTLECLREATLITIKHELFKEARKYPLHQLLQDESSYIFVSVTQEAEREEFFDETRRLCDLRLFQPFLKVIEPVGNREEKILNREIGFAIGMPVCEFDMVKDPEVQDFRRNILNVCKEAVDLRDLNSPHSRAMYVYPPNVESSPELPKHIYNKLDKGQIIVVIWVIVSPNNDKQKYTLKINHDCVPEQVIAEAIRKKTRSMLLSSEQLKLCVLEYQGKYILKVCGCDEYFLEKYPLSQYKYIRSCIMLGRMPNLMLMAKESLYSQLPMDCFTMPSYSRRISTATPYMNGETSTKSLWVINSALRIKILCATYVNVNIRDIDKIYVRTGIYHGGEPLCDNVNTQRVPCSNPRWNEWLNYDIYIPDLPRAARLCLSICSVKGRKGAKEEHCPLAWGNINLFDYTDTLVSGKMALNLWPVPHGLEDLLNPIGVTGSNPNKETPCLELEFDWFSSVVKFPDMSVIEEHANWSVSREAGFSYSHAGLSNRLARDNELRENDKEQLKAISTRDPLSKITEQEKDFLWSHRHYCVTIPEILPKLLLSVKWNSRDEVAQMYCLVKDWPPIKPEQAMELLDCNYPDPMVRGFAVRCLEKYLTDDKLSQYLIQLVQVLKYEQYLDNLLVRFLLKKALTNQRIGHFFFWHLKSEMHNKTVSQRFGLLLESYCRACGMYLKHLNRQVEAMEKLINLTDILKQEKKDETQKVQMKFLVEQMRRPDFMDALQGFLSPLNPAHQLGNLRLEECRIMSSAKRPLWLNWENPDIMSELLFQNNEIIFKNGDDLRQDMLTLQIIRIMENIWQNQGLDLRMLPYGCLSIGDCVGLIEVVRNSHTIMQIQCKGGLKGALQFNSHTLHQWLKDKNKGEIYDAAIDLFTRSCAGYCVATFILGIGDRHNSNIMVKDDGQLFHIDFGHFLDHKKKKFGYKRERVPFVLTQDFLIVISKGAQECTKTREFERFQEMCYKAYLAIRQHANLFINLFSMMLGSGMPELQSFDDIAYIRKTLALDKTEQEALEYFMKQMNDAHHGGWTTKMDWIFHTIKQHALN

[39] = target: Macrophage colony-stimulating factor 1 receptor (Homo sapiens) (UniProt P07333); conditions: Compound concentration 1000.0 nM
[40] = target: Dual specificity protein kinase CLK3 (Homo sapiens) (UniProt P49761); conditions: Compound concentration 1000.0 nM
[41] = target: Serine/threonine-protein kinase Nek5 (Homo sapiens) (UniProt Q6P3R8); conditions: Compound concentration 1000.0 nM
[42] = target: Ephrin type-A receptor 1 (Homo sapiens) (UniProt P21709); conditions: Compound concentration 1000.0 nM
Chain of Ephrin type-A receptor 1 (Homo sapiens) (P21709 whole entry): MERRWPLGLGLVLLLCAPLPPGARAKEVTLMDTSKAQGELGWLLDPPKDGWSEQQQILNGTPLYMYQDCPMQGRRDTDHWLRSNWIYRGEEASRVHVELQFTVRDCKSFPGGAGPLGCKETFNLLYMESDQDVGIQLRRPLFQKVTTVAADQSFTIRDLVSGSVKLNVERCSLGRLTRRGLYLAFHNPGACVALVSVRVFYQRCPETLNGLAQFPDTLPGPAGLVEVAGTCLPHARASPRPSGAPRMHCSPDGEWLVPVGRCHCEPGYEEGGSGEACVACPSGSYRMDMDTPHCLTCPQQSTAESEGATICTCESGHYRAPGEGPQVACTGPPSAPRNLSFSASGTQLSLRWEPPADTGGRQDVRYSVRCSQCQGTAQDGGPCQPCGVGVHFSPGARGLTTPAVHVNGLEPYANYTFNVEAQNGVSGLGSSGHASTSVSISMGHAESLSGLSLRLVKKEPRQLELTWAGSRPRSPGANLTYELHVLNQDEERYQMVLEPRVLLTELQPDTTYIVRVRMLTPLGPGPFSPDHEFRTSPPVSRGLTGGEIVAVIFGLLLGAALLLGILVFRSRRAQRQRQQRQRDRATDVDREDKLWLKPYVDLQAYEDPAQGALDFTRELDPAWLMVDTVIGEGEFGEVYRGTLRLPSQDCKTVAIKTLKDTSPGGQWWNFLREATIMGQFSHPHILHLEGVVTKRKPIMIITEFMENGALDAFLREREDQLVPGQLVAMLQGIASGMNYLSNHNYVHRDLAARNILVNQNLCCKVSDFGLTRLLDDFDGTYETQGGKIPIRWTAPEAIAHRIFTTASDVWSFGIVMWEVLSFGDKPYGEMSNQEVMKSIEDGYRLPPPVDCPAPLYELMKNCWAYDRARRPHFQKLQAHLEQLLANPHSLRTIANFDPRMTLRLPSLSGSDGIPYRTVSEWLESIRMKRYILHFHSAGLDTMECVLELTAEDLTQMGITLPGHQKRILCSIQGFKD

[43] = target: Maternal embryonic leucine zipper kinase (Homo sapiens) (UniProt Q14680); conditions: Compound concentration 1000.0 nM
[44] = target: Sigma intracellular receptor 2 (Homo sapiens, UniProt Q5BJF2); test: GPCRScan assay: inhibition of Sigma 2; parameters: radioligand conc. used [nm] 5.0, parental cells HEKT
Histamine H2 receptor = Histamine H2 receptor (Homo sapiens, UniProt P25021); conditions: Compound concentration 10.0 uM

Q: `O=S(=O)(NC1CCC(c2cc(F)ccc2F)(S(=O)(=O)c2ccc(Cl)cc2)CC1)C(F)(F)F` (stereo not given) [MRK-560] was tested. Which residual activity [1] did it give?
A: 71%

Q: What about the residual activity [2] of the same molecule?
A: 96%

Q: What about the residual activity [3] of the same molecule?
A: 100%

Q: And the residual activity [4]?
A: 97%

Q: What about the residual activity [5] of the same molecule?
A: 88%

Q: What about the residual activity [6] of the same molecule?
A: 100%

Q: And the residual activity [7]?
A: 100%

Q: And the residual activity [8]?
A: 95%

Q: What about the residual activity [9] of the same molecule?
A: 100%

Q: What about the residual activity [10] of the same molecule?
A: 91%

Q: And the residual activity [11]?
A: 100%

Q: And the residual activity [12]?
A: 100%

Q: And the residual activity [13]?
A: 88%

Q: And the residual activity [14]?
A: 93%

Q: And the residual activity [15]?
A: 100%

Q: And the residual activity [16]?
A: 100%

Q: And the residual activity [17]?
A: 100%

Q: What about the residual activity [18] of the same molecule?
A: 97%

Q: And the residual activity [19]?
A: 100%

Q: And the residual activity [20]?
A: 87%

Q: And the residual activity [21]?
A: 96%

Q: And the residual activity [22]?
A: 100%

Q: What about the residual activity [23] of the same molecule?
A: 91%

Q: And the residual activity [24]?
A: 98%

Q: What about the residual activity [25] of the same molecule?
A: 92%

Q: What about the residual activity [26] of the same molecule?
A: 99%

Q: And the residual activity [27]?
A: 100%

Q: What about the residual activity [28] of the same molecule?
A: 100%

Q: What about the residual activity [29] of the same molecule?
A: 100%

Q: What about the residual activity [30] of the same molecule?
A: 100%

Q: And the residual activity [31]?
A: 100%

Q: What about the residual activity [32] of the same molecule?
A: 82%

Q: What about the residual activity [33] of the same molecule?
A: 100%

Q: And the residual activity [34]?
A: 90%

Q: What about the residual activity [35] of the same molecule?
A: 100%

Q: And the residual activity [36]?
A: 84%

Q: What about the residual activity [37] of the same molecule?
A: 83%

Q: And the residual activity [38]?
A: 100%

Q: What about the residual activity [39] of the same molecule?
A: 100%

Q: What about the residual activity [40] of the same molecule?
A: 86%

Q: What about the residual activity [41] of the same molecule?
A: 100%

Q: And the residual activity [42]?
A: 100%

Q: What about the residual activity [43] of the same molecule?
A: 69%

Q: `CC(C)(C)OC(=O)N1CCCC1CNC1CCC(c2cc(F)ccc2F)(S(=O)(=O)c2ccc(Cl)cc2)CC1` (stereo not given) [GSI-NC] was tested. Which Ki [44] did it give?
A: 959 nM

Q: And the inhibition (Histamine H2 receptor)?
A: 53.1%
